Laboratory results published in ChEMBL document CHEMBL5724696, “Autophagy assay results for EUbOPEN Chemogenomics Library” (2024).
Values joined by “and” are separate entries in the source; they are usually repeats but may differ in a detail not shown here. Equal entries are not always repeated.

What was measured:
Type in all cases: functional, Homo sapiens
[1] = test system: TERT-RPE1; test: (§1) Here: values are normalized to the negative (DMSO; defined as 0% autophagy induction) and positive (250nM Torin1; mTOR inhibitor; defined as maximal inducer of autophagy = 100%) control compounds and represented as % of autophagy induction. […] The impact of autophagy induction on cells is complex and depends on the affected target. As such, the magnitude of a phenotype may not be equally mirrored in the %-value of autophagy induction and vice versa. The dynamics of the induction may indicate the mode of activation: e.g. activation via phosphorylation or a signaling cascade may occur fast, while activation via transcription factors may take considerably longer. […] Of note, treatment concentrations may be sub-optimal for specific compounds, leading to false negative annotations.; conditions: Culturing Media DMEM/F12 (1:1), 1 % Penicillin/Streptomycin, 10% Fetal bovin serum Add-On: No, Screening Media Control DMEM/F12 (1:1), Screening Media Samples DMEM/F12 (1:1)
[2] = test system: U2OS; test: as §1; conditions: Culturing Media DMEM, 1 % Penicillin/Streptomycin, 10% Fetal bovin serum Add-On: No, Screening Media Control DMEM, Screening Media Samples DMEM
[3] = test system: U2OS; test: as §1; conditions: Culturing Media DMEM, 1 % Penicillin/Streptomycin, 10% Fetal bovin serum Add-On: No, Screening Media Control DMEM, Screening Media Samples DMEM; remark: listed apart in the source
[4] = Compound Concentration 0.5 uM, Timepoint 12 hours
[5] = Compound Concentration 0.5 uM, Timepoint 24 hours
[6] = Compound Concentration 0.5 uM, Timepoint 36 hours
[7] = Compound Concentration 0.5 uM, Timepoint 60 hours
[8] = Compound Concentration 2 uM, Timepoint 12 hours
[9] = Compound Concentration 2 uM, Timepoint 24 hours
[10] = Compound Concentration 2 uM, Timepoint 36 hours
[11] = Compound Concentration 2 uM, Timepoint 60 hours
[12] = Compound Concentration 10 uM, Timepoint 12 hours
[13] = Compound Concentration 10 uM, Timepoint 24 hours
[14] = Compound Concentration 10 uM, Timepoint 36 hours
[15] = Compound Concentration 10 uM, Timepoint 60 hours

## FC(F)(F)c1c(N2CCC(c3ccccc3)CC2)ccn2c(CC3CC3)nnc12
[1]; Compound Concentration 0.5 uM, Timepoint 12 hours, 12 h, 0.5 µM
  autophagy induction: 0.8285% and 1.833%
[1]; Compound Concentration 0.5 uM, Timepoint 24 hours, 24 h, 0.5 µM
  autophagy induction: -1.6355% and 0.4371%
[1]; Compound Concentration 0.5 uM, Timepoint 36 hours, 36 h, 0.5 µM
  autophagy induction: -2.42% and 3.239%
[1]; Compound Concentration 0.5 uM, Timepoint 60 hours, 60 h, 0.5 µM
  autophagy induction: -6.544% and 5.154%
[1]; Compound Concentration 2 uM, Timepoint 12 hours, 12 h, 2 µM
  autophagy induction: -0.736% and 6.309%
[1]; Compound Concentration 2 uM, Timepoint 24 hours, 24 h, 2 µM
  autophagy induction: -0.3973% and 6.29%
[1]; Compound Concentration 2 uM, Timepoint 36 hours, 36 h, 2 µM
  autophagy induction: -4.125% and 5.099%
[1]; Compound Concentration 2 uM, Timepoint 60 hours, 60 h, 2 µM
  autophagy induction: -2.871% and 7.601%
[1]; Compound Concentration 10 uM, Timepoint 12 hours, 12 h, 10 µM
  autophagy induction: 0.02052% and 7.4327%
[1]; Compound Concentration 10 uM, Timepoint 24 hours, 24 h, 10 µM
  autophagy induction: -1.251% and 7.807%
[1]; Compound Concentration 10 uM, Timepoint 36 hours, 36 h, 10 µM
  autophagy induction: -2.896% and 10.4333%
[1]; Compound Concentration 10 uM, Timepoint 60 hours, 60 h, 10 µM
  autophagy induction: -4.9464% and 19.419%
[2]; [4]
  autophagy induction: -3.682%
[2]; [5]
  autophagy induction: -3.457%
[2]; [6]
  autophagy induction: 1345.14%
[2]; [7]
  autophagy induction: -2.1724%
[2]; [8]
  autophagy induction: -2.443%
[2]; [9]
  autophagy induction: -4.21%
[2]; [10]
  autophagy induction: -60.9304%
[2]; [11]
  autophagy induction: -2.478%
[2]; [12]
  autophagy induction: 1.237%
[2]; [13]
  autophagy induction: -0.8788%
[2]; [14]
  autophagy induction: -59.5065%
[2]; [15]
  autophagy induction: -0.8045%
[3]; [4]
  autophagy induction: 6.212%
[3]; [5]
  autophagy induction: 3.779%
[3]; [6]
  autophagy induction: -3.086%
[3]; [7]
  autophagy induction: -2.905%
[3]; [8]
  autophagy induction: -8.584%
[3]; [9]
  autophagy induction: -5.642%
[3]; [10]
  autophagy induction: -3.294%
[3]; [11]
  autophagy induction: -4.323%
[3]; [12]
  autophagy induction: -9.128%
[3]; [13]
  autophagy induction: -9.508%
[3]; [14]
  autophagy induction: -1.15%
[3]; [15]
  autophagy induction: -1.079%
